Active and inactive are the calls of the source. The rule behind the calls is not given here.
System: CCRIS mutagenicity, Ames/micronucleus/aberration tests
Test: CCRIS mutagenicity studies
[1] = Test System: AMES SALMONELLA TYPHIMURIUM, Strain/Indicator: TA98, Metabolic Activation: NONE, Method: PREINCUBATION
[2] = Test System: AMES SALMONELLA TYPHIMURIUM, Strain/Indicator: TA100, Metabolic Activation: NONE, Method: PREINCUBATION
[3] = Test System: AMES SALMONELLA TYPHIMURIUM, Strain/Indicator: TA102, Metabolic Activation: NONE, Method: PREINCUBATION
[4] = Test System: AMES SALMONELLA TYPHIMURIUM, Strain/Indicator: TA104, Metabolic Activation: NONE, Method: PREINCUBATION
[5] = Test System: AMES SALMONELLA TYPHIMURIUM, Strain/Indicator: TA1535, Metabolic Activation: NONE, Method: PREINCUBATION
[6] = Test System: AMES SALMONELLA TYPHIMURIUM, Strain/Indicator: TA100, Metabolic Activation: NONE, Method: STANDARD PLATE
[7] = Test System: AMES SALMONELLA TYPHIMURIUM, Strain/Indicator: TA100, Metabolic Activation: RAT, LIVER, S-9, AROCLOR 1254, Method: STANDARD PLATE
[8] = Test System: AMES SALMONELLA TYPHIMURIUM, Strain/Indicator: TA97, Metabolic Activation: NONE, Method: PREINCUBATION
[9] = Test System: AMES SALMONELLA TYPHIMURIUM, Strain/Indicator: TA98, Metabolic Activation: NONE, Method: STANDARD PLATE
[10] = Test System: AMES SALMONELLA TYPHIMURIUM, Strain/Indicator: TA98, Metabolic Activation: RAT, LIVER, S-9, AROCLOR 1254, Method: STANDARD PLATE

Structure (SMILES): O=CCC=O
- mutagenic call (End Point: IN VITRO CHROMOSOMAL ABERRATIONS, Test System: CHO CELLS, Metabolic Activation: RAT, LIVER, S-9, AROCLOR 1254): inactive; negative
- mutagenic call (Test System: AMES SALMONELLA TYPHIMURIUM, Strain/Indicator: HISD3052, Metabolic Activation: NONE, Method: STANDARD PLATE): active; positive
- mutagenic call (Test System: AMES SALMONELLA TYPHIMURIUM, Strain/Indicator: TA94, Metabolic Activation: NONE, Method: STANDARD PLATE): inactive; negative
- mutagenic call (Test System: AMES SALMONELLA TYPHIMURIUM, Strain/Indicator: TA98, Metabolic Activation: HAMSTER, LIVER, S-9, AROCLOR 1254, Method: PREINCUBATION): inactive; negative
- mutagenic call [1]: inactive; negative
- mutagenic call (Test System: AMES SALMONELLA TYPHIMURIUM, Strain/Indicator: TA98, Metabolic Activation: RAT, LIVER, S-9, AROCLOR 1254, Method: PREINCUBATION): inactive; negative
- mutagenic call (Test System: AMES SALMONELLA TYPHIMURIUM, Strain/Indicator: TA100, Metabolic Activation: HAMSTER, LIVER, S-9, AROCLOR 1254, Method: PREINCUBATION): inactive; negative
- mutagenic call [2]: inactive; negative
- mutagenic call (Test System: AMES SALMONELLA TYPHIMURIUM, Strain/Indicator: TA100, Metabolic Activation: RAT, LIVER, S-9, AROCLOR 1254, Method: PREINCUBATION): inactive; negative
- mutagenic call [3]: active; positive
- mutagenic call [4]: active; positive
- mutagenic call (Test System: AMES SALMONELLA TYPHIMURIUM, Strain/Indicator: TA1535, Metabolic Activation: HAMSTER, LIVER, S-9, AROCLOR 1254, Method: PREINCUBATION): inactive; negative
- mutagenic call [5]: inactive; negative
- mutagenic call (Test System: AMES SALMONELLA TYPHIMURIUM, Strain/Indicator: TA1535, Metabolic Activation: RAT, LIVER, S-9, AROCLOR 1254, Method: PREINCUBATION): inactive; negative
- mutagenic call (Test System: AMES SALMONELLA TYPHIMURIUM, Strain/Indicator: TA1537, Metabolic Activation: HAMSTER, LIVER, S-9, AROCLOR 1254, Method: PREINCUBATION): inactive; negative
- mutagenic call (Test System: AMES SALMONELLA TYPHIMURIUM, Strain/Indicator: TA1537, Metabolic Activation: NONE, Method: PREINCUBATION): inactive; negative
- mutagenic call (Test System: AMES SALMONELLA TYPHIMURIUM, Strain/Indicator: TA1537, Metabolic Activation: RAT, LIVER, S-9, AROCLOR 1254, Method: PREINCUBATION): inactive; negative
- mutagenic call (Test System: MOUSE LYMPHOMA, Strain/Indicator: L5178Y (TK+/TK-), Metabolic Activation: NONE, Method: SUSPENSION/PLATE): active; positive

Structure (SMILES): C1=C/CCC2OC2CC/C=C/CC/1 (centres undefined)
- mutagenic call [6]: inactive; negative
- mutagenic call [7]: inactive; negative
- mutagenic call (Test System: AMES SALMONELLA TYPHIMURIUM, Strain/Indicator: TA1535, Metabolic Activation: NONE, Method: STANDARD PLATE): inactive; negative
- mutagenic call (Test System: AMES SALMONELLA TYPHIMURIUM, Strain/Indicator: TA1535, Metabolic Activation: RAT, LIVER, S-9, AROCLOR 1254, Method: STANDARD PLATE): inactive; negative

Structure (SMILES): COCCO
- mutagenic call (Test System: AMES SALMONELLA TYPHIMURIUM, Strain/Indicator: TA97, Metabolic Activation: HAMSTER, LIVER, S-9, AROCLOR 1254 (10 OR 30%), Method: PREINCUBATION): inactive; negative
- mutagenic call [8]: inactive; negative
- mutagenic call (Test System: AMES SALMONELLA TYPHIMURIUM, Strain/Indicator: TA97, Metabolic Activation: RAT, LIVER, S-9, AROCLOR 1254 (10 OR 30%), Method: PREINCUBATION): inactive; negative
- mutagenic call (Test System: AMES SALMONELLA TYPHIMURIUM, Strain/Indicator: TA97A, Metabolic Activation: NONE, Method: STANDARD PLATE): inactive; negative
- mutagenic call (Test System: AMES SALMONELLA TYPHIMURIUM, Strain/Indicator: TA97A, Metabolic Activation: RAT, LIVER, S-9, AROCLOR 1254, Method: STANDARD PLATE): inactive; negative
- mutagenic call (Test System: AMES SALMONELLA TYPHIMURIUM, Strain/Indicator: TA98, Metabolic Activation: HAMSTER, LIVER, S-9, AROCLOR 1254 (10 OR 30%), Method: PREINCUBATION): inactive; negative
- mutagenic call [1]: inactive; negative
- mutagenic call [9]: inactive; negative
- mutagenic call (Test System: AMES SALMONELLA TYPHIMURIUM, Strain/Indicator: TA98, Metabolic Activation: RAT, LIVER, S-9, AROCLOR 1254 (10 OR 30%), Method: PREINCUBATION): inactive; negative
- mutagenic call [10]: inactive; negative
- mutagenic call (Test System: AMES SALMONELLA TYPHIMURIUM, Strain/Indicator: TA100, Metabolic Activation: HAMSTER, LIVER, S-9, AROCLOR 1254 (10 OR 30%), Method: PREINCUBATION): inactive; negative
- mutagenic call [2]: inactive; negative
- mutagenic call [6]: inactive; negative
- mutagenic call (Test System: AMES SALMONELLA TYPHIMURIUM, Strain/Indicator: TA100, Metabolic Activation: RAT, LIVER, S-9, AROCLOR 1254 (10 OR 30%), Method: PREINCUBATION): inactive; negative
- mutagenic call [7]: inactive; negative
- mutagenic call (Test System: AMES SALMONELLA TYPHIMURIUM, Strain/Indicator: TA102, Metabolic Activation: NONE, Method: STANDARD PLATE): inactive; negative
- mutagenic call (Test System: AMES SALMONELLA TYPHIMURIUM, Strain/Indicator: TA102, Metabolic Activation: RAT, LIVER, S-9, AROCLOR 1254, Method: STANDARD PLATE): inactive; negative
- mutagenic call (Test System: AMES SALMONELLA TYPHIMURIUM, Strain/Indicator: TA1535, Metabolic Activation: HAMSTER, LIVER, S-9, AROCLOR 1254 (10 OR 30%), Method: PREINCUBATION): inactive; negative
- mutagenic call [5]: inactive; negative
- mutagenic call (Test System: AMES SALMONELLA TYPHIMURIUM, Strain/Indicator: TA1535, Metabolic Activation: RAT, LIVER, S-9, AROCLOR 1254 (10 OR 30%), Method: PREINCUBATION): inactive; negative
- mutagenic call (Test System: CHINESE HAMSTER OVARY, Strain/Indicator: CHO AS52 (GPT)/6-THIOGUANINE, Metabolic Activation: NONE): inactive; negative
- mutagenic call (Test System: CHINESE HAMSTER OVARY, Strain/Indicator: CHO-AS52/6-THIOGUANINE, Metabolic Activation: NONE): inactive; negative
- mutagenic call (Test System: CHINESE HAMSTER OVARY, Strain/Indicator: CHO-K1-BH4 (HGPRT)/6-THIOGUANINE, Metabolic Activation: NONE): inactive; negative
- mutagenic call (Test System: CHINESE HAMSTER OVARY, Strain/Indicator: CHO-K1-BH4 (HGPRT)/6-THIOGUANINE, Metabolic Activation: RAT, LIVER, S-9, AROCLOR 1254): inactive; negative

Structure (SMILES): CC(=O)N(O)c1ccc(Cl)c(Cl)c1
- mutagenic call (Test System: AMES SALMONELLA TYPHIMURIUM, Strain/Indicator: TA97, Metabolic Activation: NONE, Method: STANDARD PLATE): inactive; negative
- mutagenic call (Test System: AMES SALMONELLA TYPHIMURIUM, Strain/Indicator: TA97, Metabolic Activation: RAT, LIVER, S-9, AROCLOR 1254, Method: STANDARD PLATE): inactive; negative
- mutagenic call [9]: inactive; negative
- mutagenic call [10]: inactive; negative
- mutagenic call [6]: inactive; negative
- mutagenic call [7]: inactive; negative
- mutagenic call (Test System: AMES SALMONELLA TYPHIMURIUM, Strain/Indicator: TA104, Metabolic Activation: NONE, Method: STANDARD PLATE): inactive; negative
- mutagenic call (Test System: AMES SALMONELLA TYPHIMURIUM, Strain/Indicator: TA104, Metabolic Activation: RAT, LIVER, S-9, AROCLOR 1254, Method: STANDARD PLATE): inactive; negative

Structure (SMILES): N[C@@H](CCC(=O)N[C@@H](CSN=O)C(=O)NCC(=O)O)C(=O)O
- mutagenic call [2]: active; positive
- mutagenic call (Test System: AMES SALMONELLA TYPHIMURIUM, Strain/Indicator: TA100, Metabolic Activation: RAT, LIVER, S-9, AROCLOR, Method: PREINCUBATION): active; positive
- mutagenic call [3]: active; positive

Structure (SMILES): O[C@H]1[C@H]2O[C@H]2c2c(ccc3ccccc23)[C@@H]1O
- mutagenic call [8]: active; positive
- mutagenic call [1]: active; positive
- mutagenic call [2]: active; positive
- mutagenic call [6]: active; positive
- mutagenic call [4]: active; positive
- mutagenic call (Test System: CHINESE HAMSTER V-79, Strain/Indicator: V-79/6-THIOGUANINE, Metabolic Activation: NONE): active; positive

Structure (SMILES): CCCCN(C(CCC)OC(C)=O)[N+](=O)[O-] (centres undefined)
- mutagenic call (Test System: E. COLI, Strain/Indicator: WP2 (HCR-), Metabolic Activation: NONE): active; positive

— PubChem BioAssay AID1259407 (Chemical Carcinogenesis Research Information System (CCRIS), 2018)
